Laboratory results taken from PMC8035703, “Effect of Synchronous Versus Sequential Regimens on the Pharmacokinetics and Biodistribution of Regorafenib with Irradiation” (Pharmaceutics, 2021).
Like-named read-outs stand apart in the source and are kept apart here.

Experiments:
[1] = Organ distribution of regorafenib in rats with or without RT; type: in vivo, Sprague-Dawley rats; conditions: for concentration at 4 h: male, Sprague-Dawley, 16 mg/kg, 4 h after oral administration
Description: According to the formula used to translate doses from animal to human, human equivalent dose (HED, mg/kg) = animal dose (mg/kg) × animal km/human km, we calculated the daily dose of regorafenib for rats to be 16 (mg/kg/day). The rats were randomly divided into ten groups with six rats in each group. The concurrent groups treated with regorafenib 1 h after RT, in the same day, to mimic regorafenib concurrent with RT in the daily practice. The sequential groups treated with regorafenib following RT (not in the same day), to mimic RT followed by regorafenib in the daily practice. The one fraction study group included (A) a sham group, regorafenib with RT0 Gy (regorafenib × 1 d); concurrent groups treated with regorafenib 1 h after (B) RT2 Gy with 1 fraction (RT2 Gy × 1 f’x) and (D) RT9 Gy with 1 fraction (RT9 Gy × 1 f’x); and sequential groups treated with regorafenib 24 h after (C) RT2 Gy × 1 f’x and (E) RT9 Gy × 1 f’x. Continued treatment mimicking clinical practice was applied to (A) a sham group, regorafenib (p.o. (per os), q.d. × 3 d) with RT0 Gy (regorafenib × 3 d); concurrent groups treated with regorafenib (p.o., q.d. × 3 d) 1 h after (B) RT2 Gy with 3 fractions (RT2 Gy × 3 f’x) and (D) RT9 Gy with 3 fractions (RT9Gy × 3 f’x); and sequential groups treated with regorafenib 24 h (p.o., q.d. × 3 d) after (C) RT2 Gy × 3 f’x and (E) RT9 Gy × 3 f’x. (Figure 1A,B).
Organs, including the brain, liver, heart, spleen, lung and kidney, were collected, weighed and stored at −20 °C, until analysis.
The organ samples were homogenized in 50% aqueous acetonitrile (sample weight: volume = 1:5) and centrifuged at 13,000× g, for 10 min, at 4 °C. The supernatant was stored at −20 °C, until analysis. Additionally, 150 μL of IS solution (diethylstilbestrol) was combined with each organ sample (50 μL) for protein precipitation. Finally, the filtrate (20 μL) was analyzed by HPLC.

[2] = system: Huh-7 cells; test: Cell cycle analysis (propidium iodide, flow cytometry); type: cell-based, human
Description: The cells were collected, fixed and stained with propidium iodide. Flow cytometry was performed, using a Beckman Coulter Elite Epics sorter. The sub-G1 phase was used to quantify dead cells in the apoptosis assays. Cells were released into DMSO or regorafenib at 5, 10 and 20 μM in the concurrent or sequential groups with different RT doses. Floating and adherent cells were harvested at various time points, stained with propidium iodide and analyzed by flow cytometry.

[3] = system: Huh-7 cells; test: Apoptosis assay (Annexin-V FITC / PI); type: cell-based, human
Text: Annexin-V FITC and propidium iodide (PI) (BD Bioscience Pharmingen (San Diego, CA, USA)) were used to identify apoptotic cells by FACScan. Cells that were positive for Annexin V and negative for PI were defined as early apoptotic cells. Cells that were positive for both Annexin V and PI were defined as late apoptotic cells.

[4] = system: HA22T cells; test: Colony formation assay; type: cell-based, human
Description: HA22T cells kindly provided from professor Hu (Taipei Veterans General Hospital, Taiwan) were treated with trypsin to detach, counted and plated (400 per plate) into dishes measuring 60 mm, […] and allowed to grow for 10 days. Cells were stained, and colonies containing ≥ 50 cells were counted.

[5] = system: HCC patients; design: method as in PMID 29704513; conditions: patients treated with sorafenib followed by regorafenib; cited from earlier work

concentration at 4 h ([1]; rat, heart, po, rat, 16 mg/kg p.o. × 1 d, no RT, read-out: Concentration in heart): 450 ± 310 ng/g | concentration at 4 h ([1]; rat, heart, po, rat, 16 mg/kg p.o. × 3 d, no RT, read-out: Concentration in heart): 250 ± 100 ng/g | concentration at 4 h ([1]; rat, kidney, oral, rat, RT2 Gy × 1 f'x with regorafenib 16 mg/kg × 1 d (concurrent), read-out: Concentration in kidneys): 210 ± 110 ng/g | concentration at 4 h ([1]; rat, kidney, oral, rat, RT9 Gy × 1 f'x followed by regorafenib 16 mg/kg × 1 d (sequential), read-out: Concentration in kidneys): 590 ± 340 ng/g | concentration at 4 h ([1]; rat, kidney, oral, rat, RT9 Gy × 3 f'x followed by regorafenib 16 mg/kg × 3 d (sequential), read-out: Concentration in kidneys): 400 ± 430 ng/g | concentration at 4 h ([1]; rat, kidney, oral, rat, RT9 Gy × 3 f'x with regorafenib 16 mg/kg × 3 d (concurrent), read-out: Concentration in kidneys): 170 ± 120 ng/g | concentration at 4 h ([1]; rat, kidney, po, rat, 16 mg/kg p.o. × 1 d, no RT, read-out: Concentration in kidneys): 340 ± 190 ng/g | concentration at 4 h ([1]; rat, kidney, po, rat, 16 mg/kg p.o. × 3 d, no RT, read-out: Concentration in kidneys): 650 ± 250 ng/g | concentration at 4 h ([1]; rat, liver, oral, rat, RT2 Gy × 1 f'x with regorafenib 16 mg/kg × 1 d (concurrent), read-out: Concentration in liver): 1100 ± 510 ng/g | concentration at 4 h ([1]; rat, liver, oral, rat, RT9 Gy × 1 f'x followed by regorafenib 16 mg/kg × 1 d (sequential), read-out: Concentration in liver): 2390 ± 1200 ng/g | concentration at 4 h ([1]; rat, liver, oral, rat, RT9 Gy × 3 f'x followed by regorafenib 16 mg/kg × 3 d (sequential), read-out: Concentration in liver): 1160 ± 1120 ng/g | concentration at 4 h ([1]; rat, liver, oral, rat, RT9 Gy × 3 f'x with regorafenib 16 mg/kg × 3 d (concurrent), read-out: Concentration in liver): 700 ± 290 ng/g | concentration at 4 h ([1]; rat, liver, po, rat, 16 mg/kg p.o. × 1 d, no RT, read-out: Concentration in liver): 1460 ± 340 ng/g | concentration at 4 h ([1]; rat, liver, po, rat, 16 mg/kg p.o. × 3 d, no RT, read-out: Concentration in liver): 1450 ± 740 ng/g | concentration at 4 h ([1]; rat, lung, oral, rat, RT2 Gy × 1 f'x with regorafenib 16 mg/kg × 1 d (concurrent), read-out: Concentration in lung): 290 ± 190 ng/g | concentration at 4 h ([1]; rat, lung, oral, rat, RT9 Gy × 1 f'x followed by regorafenib 16 mg/kg × 1 d (sequential), read-out: Concentration in lung): 1010 ± 700 ng/g | concentration at 4 h ([1]; rat, lung, oral, rat, RT9 Gy × 3 f'x followed by regorafenib 16 mg/kg × 3 d (sequential), read-out: Concentration in lung): 370 ± 230 ng/g | concentration at 4 h ([1]; rat, lung, oral, rat, RT9 Gy × 3 f'x with regorafenib 16 mg/kg × 3 d (concurrent), read-out: Concentration in lung): 250 ± 180 ng/g | concentration at 4 h ([1]; rat, lung, po, rat, 16 mg/kg p.o. × 1 d, no RT, read-out: Concentration in lung): 470 ± 180 ng/g | concentration at 4 h ([1]; rat, lung, po, rat, 16 mg/kg p.o. × 3 d, no RT, read-out: Concentration in lung): 1120 ± 250 ng/g | concentration at 4 h ([1]; rat, spleen, oral, rat, RT2 Gy × 1 f'x with regorafenib 16 mg/kg × 1 d (concurrent), read-out: Concentration in spleen): 190 ± 70 ng/g | concentration at 4 h ([1]; rat, spleen, oral, rat, RT9 Gy × 1 f'x followed by regorafenib 16 mg/kg × 1 d (sequential), read-out: Concentration in spleen): 680 ± 450 ng/g | concentration at 4 h ([1]; rat, spleen, oral, rat, RT9 Gy × 3 f'x followed by regorafenib 16 mg/kg × 3 d (sequential), read-out: Concentration in spleen): 230 ± 310 ng/g | concentration at 4 h ([1]; rat, spleen, oral, rat, RT9 Gy × 3 f'x with regorafenib 16 mg/kg × 3 d (concurrent), read-out: Concentration in spleen): 100 ± 80 ng/g | concentration at 4 h ([1]; rat, spleen, po, rat, 16 mg/kg p.o. × 1 d, no RT, read-out: Concentration in spleen): 260 ± 100 ng/g | concentration at 4 h ([1]; rat, spleen, po, rat, 16 mg/kg p.o. × 3 d, no RT, read-out: Concentration in spleen): 380 ± 220 ng/g | Concentrations of regorafenib in the brain (in words) ([1]; rat, all regimens): very limited
SMILES: CNC(=O)c1cc(Oc2ccc(NC(=O)Nc3ccc(Cl)c(C(F)(F)F)c3)c(F)c2)ccn1 [regorafenib, Regorafenib]
Biodistribution in heart, liver, lung, spleen and kidneys (in words) ([1]; sequential RT2 Gy × 1 f'x and RT9 Gy × 1 f'x vs control (regorafenib × 1 d)): increased the biodistribution of regorafenib | Accumulation of sub-G1 Huh-7 cells (in words) ([2]; concurrent groups): correlated with the dose of regorafenib but was not correlated with RT or its absence | Accumulation of sub-G1 Huh-7 cells (in words) ([2]; sequential groups): correlated with the doses of regorafenib and RT | Late apoptosis of Huh-7 cells (in words) ([3]; RT followed by regorafenib): enhanced the late apoptosis of Huh-7 cells | Apoptosis of Huh-7 cells (in words) ([3]; regorafenib concurrent with or following RT): caused Huh-7 cell apoptosis in a dose-dependent manner | Colony formation, regorafenib with RT vs regorafenib alone (in words) ([4]; regorafenib 1, 10 and 20 μM, concurrent or sequential with RT): synergic effects to inhibit the colony formation | Colony formation of HA22T (in words) ([4]; regorafenib 1 to 20 μM and RT (2 and 9 Gy)): colony formation of HA22T were decreased | Median overall survival [5]: 26 months
